Values of other authors in patent publication US20030170847A1, “Genes involved in isoprenoid compound production” (priority 2001, published 2003).

How the values were obtained:
[1] = test system: nonphotosynthetic bacterial CrtY-type of lycopene cyclases; details: Cunningham et al., The Plant Cell 1994
[2] = test system: CrtL-type of lycopene cyclases; details: Cunningham et al., The Plant Cell 1994

CCN(CC)CCSc1ccc(Cl)cc1.Cl [CPTA, 2-(4-chlorophenylthio)-triethylamine hydrochloride]
inhibition of CrtY-type of lycopene cyclases [1]: not | inhibition of CrtL-type of lycopene cyclases [2]: specifically inhibit

CCN(CC)CCOc1ccc(C)cc1.Cl [MPTA, 2-(4-methylphenoxy)-triethylamine hydrochloride]
inhibition of CrtY-type of lycopene cyclases [1]: not | inhibition of CrtL-type of lycopene cyclases [2]: specifically inhibit
